Assay results: PubChem BioAssay (NCI)
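Cells were grown in 96-well plates and exposed to each compound for 48 hours at five concentrations; endpoints were interpolated linearly between bracketing concentrations, or set to the highest concentration if not reached. Definition used: TGI = concentration required for complete inhibition of growth.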

How the values were obtained:
Test in all cases: inhibition of tumour cell growth, NCI panel, 48 h
KM12 colon = system: KM12 colon
M19-MEL melanoma = system: M19-MEL melanoma
SF-268 CNS = system: SF-268 CNS
RXF 393 renal = system: RXF 393 renal
OVCAR-5 ovarian = system: OVCAR-5 ovarian
MOLT-4 leukemia = system: MOLT-4 leukemia
OVCAR-3 ovarian = system: OVCAR-3 ovarian
IGROV1 ovarian = system: IGROV1 ovarian
SF-539 CNS = system: SF-539 CNS
UACC-62 melanoma = system: UACC-62 melanoma
UO-31 renal = system: UO-31 renal
LOX IMVI melanoma = system: LOX IMVI melanoma
HOP-62 NSCLC = system: HOP-62 NSCLC
KM20L2 colon = system: KM20L2 colon
HOP-92 NSCLC = system: HOP-92 NSCLC
COLO 205 colon = system: COLO 205 colon
DMS 273 small cell lung = system: DMS 273 small cell lung
DMS 114 small cell lung = system: DMS 114 small cell lung
NCI-H23 lung = system: NCI-H23 lung
NCI-H522 lung = system: NCI-H522 lung
HOP-18 NSCLC = system: HOP-18 NSCLC
U251 CNS = system: U251 CNS
SK-MEL-28 melanoma = system: SK-MEL-28 melanoma
K-562 leukemia = system: K-562 leukemia
ACHN renal = system: ACHN renal
CCRF-CEM leukemia = system: CCRF-CEM leukemia
SK-OV-3 ovarian = system: SK-OV-3 ovarian
SF-295 CNS = system: SF-295 CNS
OVCAR-4 ovarian = system: OVCAR-4 ovarian
SW-620 colon = system: SW-620 colon
DLD-1 colon = system: DLD-1 colon
CAKI-1 renal = system: CAKI-1 renal
SK-MEL-2 melanoma = system: SK-MEL-2 melanoma
SK-MEL-5 melanoma = system: SK-MEL-5 melanoma
RPMI-8226 leukemia = system: RPMI-8226 leukemia
NCI-H226 lung = system: NCI-H226 lung
XF 498 CNS = system: XF 498 CNS
MALME-3M melanoma = system: MALME-3M melanoma
SR leukemia = system: SR leukemia
OVCAR-8 ovarian = system: OVCAR-8 ovarian
SN12C renal = system: SN12C renal
A549 NSCLC = system: A549 NSCLC
SNB-78 CNS = system: SNB-78 CNS
EKVX NSCLC = system: EKVX NSCLC
HCC-2998 colon = system: HCC-2998 colon
HCT-116 colon = system: HCT-116 colon
SNB-19 CNS = system: SNB-19 CNS
LXFL 529 NSCLC = system: LXFL 529 NSCLC
TK-10 renal = system: TK-10 renal
HCT-15 colon = system: HCT-15 colon
M14 melanoma = system: M14 melanoma
A498 renal = system: A498 renal
786-0 renal = system: 786-0 renal
SNB-75 CNS = system: SNB-75 CNS
UACC-257 melanoma = system: UACC-257 melanoma
HT29 colon = system: HT29 colon
HL-60(TB) leukemia = system: HL-60(TB) leukemia
NCI-H460 lung = system: NCI-H460 lung

Work on `N#CCCN(CCC#N)c1ccc(/C=C2\N=C(c3cc([N+](=O)[O-])ccc3Cl)N(S(=O)(=O)c3ccccc3)C2=O)cc1` yielded a TGI (KM12 colon) of over 100 µM, a TGI (M19-MEL melanoma) of over 100 µM and a TGI (SF-268 CNS) of over 100 µM. It also gave a TGI (RXF 393 renal) of over 100 µM, a TGI (OVCAR-5 ovarian) of over 100 µM and a TGI (MOLT-4 leukemia) of over 100 µM. The TGI (OVCAR-3 ovarian) was over 100 µM, the TGI (IGROV1 ovarian) was over 100 µM and the TGI (SF-539 CNS) was over 100 µM. The TGI (UACC-62 melanoma) was over 100 µM, the TGI (UO-31 renal) was over 100 µM and the TGI (LOX IMVI melanoma) was over 100 µM. The TGI (HOP-62 NSCLC) was over 100 µM, the TGI (KM20L2 colon) was over 100 µM and the TGI (HOP-92 NSCLC) was over 100 µM. For the same compound, the TGI (COLO 205 colon) was over 100 µM, the TGI (DMS 273 small cell lung) was over 100 µM and the TGI (DMS 114 small cell lung) was over 100 µM. It also gave a TGI (NCI-H23 lung) of over 100 µM, a TGI (NCI-H522 lung) of over 100 µM and a TGI (HOP-18 NSCLC) of over 100 µM. It also gave a TGI (U251 CNS) of over 100 µM, a TGI (SK-MEL-28 melanoma) of over 100 µM and a TGI (K-562 leukemia) of over 100 µM. The TGI (ACHN renal) was over 100 µM, the TGI (CCRF-CEM leukemia) was over 100 µM and the TGI (SK-OV-3 ovarian) was over 100 µM. For the same compound, the TGI (SF-295 CNS) was over 100 µM, the TGI (OVCAR-4 ovarian) was over 100 µM and the TGI (SW-620 colon) was over 100 µM. For the same compound, the TGI (DLD-1 colon) was over 100 µM, the TGI (CAKI-1 renal) was over 100 µM and the TGI (SK-MEL-2 melanoma) was over 100 µM. It also gave a TGI (SK-MEL-5 melanoma) of over 100 µM, a TGI (RPMI-8226 leukemia) of over 100 µM and a TGI (NCI-H226 lung) of over 100 µM. For the same compound, the TGI (XF 498 CNS) was over 100 µM, the TGI (MALME-3M melanoma) was over 100 µM and the TGI (SR leukemia) was over 100 µM. It also gave a TGI (OVCAR-8 ovarian) of over 100 µM, a TGI (SN12C renal) of over 100 µM and a TGI (A549 NSCLC) of over 100 µM. It also gave a TGI (SNB-78 CNS) of over 100 µM, a TGI (EKVX NSCLC) of over 100 µM and a TGI (HCC-2998 colon) of over 100 µM. It also gave a TGI (HCT-116 colon) of over 100 µM, a TGI (SNB-19 CNS) of over 100 µM and a TGI (LXFL 529 NSCLC) of over 100 µM. The TGI (TK-10 renal) was over 100 µM and the TGI (HCT-15 colon) was over 100 µM.
`Cc1c(Cl)ccc2c1NC(=O)C2(O)CC(=O)c1cccc2ccccc12` (configuration not stated) showed a TGI (KM12 colon) of over 100 µM, a TGI (M19-MEL melanoma) of 37.6 µM and a TGI (SF-268 CNS) of over 100 µM. It also gave a TGI (RXF 393 renal) of over 100 µM, a TGI (OVCAR-5 ovarian) of over 100 µM and a TGI (MOLT-4 leukemia) of over 100 µM. For the same compound, the TGI (OVCAR-3 ovarian) was over 100 µM, the TGI (IGROV1 ovarian) was over 100 µM and the TGI (SF-539 CNS) was over 100 µM. The TGI (UACC-62 melanoma) was over 100 µM, the TGI (UO-31 renal) was over 100 µM and the TGI (M14 melanoma) was over 100 µM. It also gave a TGI (LOX IMVI melanoma) of over 100 µM, a TGI (HOP-62 NSCLC) of over 100 µM and a TGI (KM20L2 colon) of over 100 µM. It also gave a TGI (COLO 205 colon) of over 100 µM, a TGI (DMS 273 small cell lung) of over 100 µM and a TGI (DMS 114 small cell lung) of 55.8 µM. It also gave a TGI (NCI-H23 lung) of over 100 µM, a TGI (NCI-H522 lung) of over 100 µM and a TGI (HOP-18 NSCLC) of over 100 µM. It also gave a TGI (A498 renal) of over 100 µM, a TGI (786-0 renal) of over 100 µM and a TGI (U251 CNS) of over 100 µM. The TGI (SK-MEL-28 melanoma) was over 100 µM, the TGI (K-562 leukemia) was over 100 µM and the TGI (ACHN renal) was over 100 µM. The TGI (CCRF-CEM leukemia) was over 100 µM, the TGI (SK-OV-3 ovarian) was over 100 µM and the TGI (SNB-75 CNS) was over 100 µM. The TGI (SF-295 CNS) was over 100 µM, the TGI (OVCAR-4 ovarian) was 71.3 µM and the TGI (SW-620 colon) was over 100 µM. It also gave a TGI (DLD-1 colon) of over 100 µM, a TGI (CAKI-1 renal) of over 100 µM and a TGI (SK-MEL-2 melanoma) of over 100 µM. For the same compound, the TGI (SK-MEL-5 melanoma) was over 100 µM, the TGI (RPMI-8226 leukemia) was over 100 µM and the TGI (UACC-257 melanoma) was over 100 µM. The TGI (HT29 colon) was over 100 µM, the TGI (NCI-H226 lung) was over 100 µM and the TGI (XF 498 CNS) was over 100 µM. For the same compound, the TGI (MALME-3M melanoma) was over 100 µM, the TGI (HL-60(TB) leukemia) was 42.3 µM and the TGI (SR leukemia) was 63.1 µM. It also gave a TGI (OVCAR-8 ovarian) of over 100 µM, a TGI (SN12C renal) of over 100 µM and a TGI (A549 NSCLC) of over 100 µM. For the same compound, the TGI (SNB-78 CNS) was over 100 µM, the TGI (EKVX NSCLC) was over 100 µM and the TGI (HCC-2998 colon) was over 100 µM. The TGI (HCT-116 colon) was over 100 µM, the TGI (SNB-19 CNS) was over 100 µM and the TGI (LXFL 529 NSCLC) was over 100 µM. The TGI (TK-10 renal) was over 100 µM, the TGI (HCT-15 colon) was over 100 µM and the TGI (NCI-H460 lung) was over 100 µM.
